According to patent US20240158418A1 (C4 Therapeutics, Inc., priority 2021, published 2024):

Key:
Type in all cases: cell-based
EGFR L858R-T790M = target: T1, EGFR L858R-T790M (Homo sapiens, UniProt P00533, L858R/T790M); test: EGFR degradation, Total EGFR (L858R-specific) HTRF, NCI-H1975; settings: Table 9B; NCI-H1975 cells, 6 hours, Total EGFR HTRF; read-out: H1975 EGFR DC50
T1 construct: NCI-H1975 (harboring EGFR heterozygous L858R-T790M mutations); host or cells: NCI-H1975
Method in brief: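 HTRF read-outs: pY1068 phospho-EGFR for IC50; total EGFR (pan-EGFR in A431, L858R-specific in mutant lines) for DC50. Compounds were titrated 11 points, half-log, from 10 μM in duplicate onto cells in 10% FBS RPMI, incubated 6 h at 37°C.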

EGFR L858R-T790M-C797S = target: T2, EGFR L858R-T790M-C797S (Homo sapiens, UniProt P00533, C797S/L858R/T790M); test: EGFR degradation, Total EGFR (L858R-specific) HTRF, NCI-H1975+CS; settings: Table 9B; NCI-H1975 C797S clone, 6 hours, Total EGFR HTRF; read-out: H1975 C797S clone EGFR DC50
T2 construct: generated using CRISPR technology to introduce the additional C797S mutation by Horizon Discovery; host or cells: NCI-H1975+CS (CRISPR knock-in of C797S)
Description: (§1) NCI-H1975 (harboring EGFR heterozygous L858R-T790M mutations) and NCI-H3255 (harboring EGFR heterozygous L858R mutation) were purchased from ATCC and NCI, respectively. NCI-H1975+CS (harboring EGFR heterozygous L858R-T790M-C797S mutations) was generated using CRISPR technology to introduce the additional C797S mutation by Horizon Discovery. A431 (harboring EGFR wildtype) was purchased from ATCC. RPMI 1640 no-phenol red medium and fetal bovine serum (FBS) were purchased from Gibco (Grand Island, NY, USA). Cell culture flasks and 384-well microplates were acquired from VWR (Radnor, PA, USA). Phosphorylated (pY1068) EGFR and Total EGFR (using L858R-specific detection antibody and pan-EGFR antibody for EGFR mutant cell lines and EGFR wild-type cell lines, respectively) HTRF assay kits were purchased from Cisbio (Bedford, MA, USA).
(§2) Degradation of EGFR protein containing L858R mutation or wild-type was determined based on quantification of FRET signal using a Total EGFR (L858R-specific or pan-EGFR detecting) HTRF assay kit. Phospho-EGFR (pEGFR) inhibition was determined based on quantification of FRET signal using a pY1068 EGFR HTRF assay kit. In separate assay plates, test compounds were added to the 384-well plate from a top concentration of 10 μM with 11 points, half log titration in duplicates. For each assay, 12.5 uL of cells suspended in assay media (RPMI 1640 no-phenol red medium+10% FBS) at cell densities indicated for each cell line in Table 8 below were dispensed using a multi-channel pipette to 384-well low volume white HTRF microplates containing a duplicate concentration range of test compounds and DMSO controls. The plates were kept at 37° C. with 5% CO2 for 6 hours and then incubated with either phospho EGFR or Total EGFR HTRF detection antibodies according to the cell line and EGFR mutant being assayed. Cells treated in the absence of the test compound were the negative control. Positive control was set by wells containing all reagents but no cells. FRET signal was acquired on EnVision™ Multilabel Reader (PerkinElmer, Santa Clara, CA, USA). Compound concentration that achieves 50% degradation and inhibition was reported as DC50 and IC50, respectively.

EGFR L858R = EGFR L858R (Homo sapiens, UniProt P00533, L858R); test: EGFR degradation, Total EGFR (L858R-specific) HTRF, NCI-H3255; parameters: NCI-H3255 (harboring EGFR heterozygous L858R mutation); host or cells: NCI-H3255; settings: Table 9B; NCI-H3255 cells, 6 hours, Total EGFR HTRF; read-out: H3255 EGFR DC50
Description: as §1, §2

T2 sequence (P00533 25-1210 T790M/C797S/L858R): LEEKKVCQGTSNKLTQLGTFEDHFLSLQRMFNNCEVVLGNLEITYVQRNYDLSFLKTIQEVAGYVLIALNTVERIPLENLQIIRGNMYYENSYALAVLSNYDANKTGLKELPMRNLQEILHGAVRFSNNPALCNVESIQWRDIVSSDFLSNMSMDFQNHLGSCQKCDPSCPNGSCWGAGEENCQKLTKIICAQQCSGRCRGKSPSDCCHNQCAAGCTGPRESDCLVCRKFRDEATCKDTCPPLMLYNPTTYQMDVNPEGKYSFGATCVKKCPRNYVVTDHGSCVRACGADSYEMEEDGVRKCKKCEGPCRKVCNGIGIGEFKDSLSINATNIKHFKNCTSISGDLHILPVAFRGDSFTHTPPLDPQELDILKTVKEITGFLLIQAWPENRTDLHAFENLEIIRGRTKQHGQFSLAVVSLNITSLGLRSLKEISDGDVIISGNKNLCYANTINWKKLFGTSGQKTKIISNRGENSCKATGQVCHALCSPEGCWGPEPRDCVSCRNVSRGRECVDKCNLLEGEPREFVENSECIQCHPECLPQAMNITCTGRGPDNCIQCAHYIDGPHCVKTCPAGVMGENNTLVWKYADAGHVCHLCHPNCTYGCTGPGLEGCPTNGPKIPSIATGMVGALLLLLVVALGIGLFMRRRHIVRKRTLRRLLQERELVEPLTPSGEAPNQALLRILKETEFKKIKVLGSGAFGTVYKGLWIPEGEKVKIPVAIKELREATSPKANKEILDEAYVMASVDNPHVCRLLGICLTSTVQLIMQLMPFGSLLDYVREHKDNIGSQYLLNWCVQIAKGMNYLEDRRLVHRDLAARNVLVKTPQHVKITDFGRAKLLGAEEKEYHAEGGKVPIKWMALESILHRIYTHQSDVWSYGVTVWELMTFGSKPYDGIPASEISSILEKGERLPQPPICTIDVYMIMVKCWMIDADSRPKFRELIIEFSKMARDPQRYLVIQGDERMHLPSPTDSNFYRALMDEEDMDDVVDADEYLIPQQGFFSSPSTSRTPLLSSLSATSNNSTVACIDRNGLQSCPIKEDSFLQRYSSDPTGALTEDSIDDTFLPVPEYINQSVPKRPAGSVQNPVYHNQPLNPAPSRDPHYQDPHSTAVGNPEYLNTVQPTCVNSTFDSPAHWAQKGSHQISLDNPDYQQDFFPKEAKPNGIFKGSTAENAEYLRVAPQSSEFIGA
T1 sequence (P00533 25-1210 T790M/L858R): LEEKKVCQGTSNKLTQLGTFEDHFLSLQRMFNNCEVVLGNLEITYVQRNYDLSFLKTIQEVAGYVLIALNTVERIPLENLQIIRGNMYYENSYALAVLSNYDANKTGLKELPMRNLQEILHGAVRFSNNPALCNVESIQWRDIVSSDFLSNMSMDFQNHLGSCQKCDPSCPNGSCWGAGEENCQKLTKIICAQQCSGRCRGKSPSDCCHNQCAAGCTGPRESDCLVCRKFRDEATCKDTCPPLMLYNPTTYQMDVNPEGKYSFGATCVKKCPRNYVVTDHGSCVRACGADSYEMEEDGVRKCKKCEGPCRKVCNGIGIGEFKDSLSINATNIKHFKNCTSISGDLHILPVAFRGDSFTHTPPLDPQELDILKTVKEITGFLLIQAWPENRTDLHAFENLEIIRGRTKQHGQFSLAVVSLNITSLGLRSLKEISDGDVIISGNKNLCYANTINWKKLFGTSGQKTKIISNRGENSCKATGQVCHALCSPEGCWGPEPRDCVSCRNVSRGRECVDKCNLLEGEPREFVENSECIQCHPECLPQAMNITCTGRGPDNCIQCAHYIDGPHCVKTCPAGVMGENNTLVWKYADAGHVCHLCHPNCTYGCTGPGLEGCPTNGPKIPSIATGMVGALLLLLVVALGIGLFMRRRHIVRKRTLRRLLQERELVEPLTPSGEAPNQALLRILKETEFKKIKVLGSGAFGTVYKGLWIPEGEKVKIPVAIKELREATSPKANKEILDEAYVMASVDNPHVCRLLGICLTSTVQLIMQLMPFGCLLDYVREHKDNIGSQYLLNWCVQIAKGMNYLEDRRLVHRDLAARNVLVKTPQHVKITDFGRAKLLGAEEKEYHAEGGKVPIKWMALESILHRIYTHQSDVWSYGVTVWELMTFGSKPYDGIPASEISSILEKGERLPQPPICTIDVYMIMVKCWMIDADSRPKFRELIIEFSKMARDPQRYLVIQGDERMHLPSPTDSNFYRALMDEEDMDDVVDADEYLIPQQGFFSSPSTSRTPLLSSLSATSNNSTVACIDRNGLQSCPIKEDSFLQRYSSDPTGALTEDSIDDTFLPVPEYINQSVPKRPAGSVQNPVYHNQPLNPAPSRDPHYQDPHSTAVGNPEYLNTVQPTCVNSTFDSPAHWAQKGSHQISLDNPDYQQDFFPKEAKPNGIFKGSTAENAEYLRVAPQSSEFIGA
Chain of EGFR L858R (P00533 25-1210 L858R): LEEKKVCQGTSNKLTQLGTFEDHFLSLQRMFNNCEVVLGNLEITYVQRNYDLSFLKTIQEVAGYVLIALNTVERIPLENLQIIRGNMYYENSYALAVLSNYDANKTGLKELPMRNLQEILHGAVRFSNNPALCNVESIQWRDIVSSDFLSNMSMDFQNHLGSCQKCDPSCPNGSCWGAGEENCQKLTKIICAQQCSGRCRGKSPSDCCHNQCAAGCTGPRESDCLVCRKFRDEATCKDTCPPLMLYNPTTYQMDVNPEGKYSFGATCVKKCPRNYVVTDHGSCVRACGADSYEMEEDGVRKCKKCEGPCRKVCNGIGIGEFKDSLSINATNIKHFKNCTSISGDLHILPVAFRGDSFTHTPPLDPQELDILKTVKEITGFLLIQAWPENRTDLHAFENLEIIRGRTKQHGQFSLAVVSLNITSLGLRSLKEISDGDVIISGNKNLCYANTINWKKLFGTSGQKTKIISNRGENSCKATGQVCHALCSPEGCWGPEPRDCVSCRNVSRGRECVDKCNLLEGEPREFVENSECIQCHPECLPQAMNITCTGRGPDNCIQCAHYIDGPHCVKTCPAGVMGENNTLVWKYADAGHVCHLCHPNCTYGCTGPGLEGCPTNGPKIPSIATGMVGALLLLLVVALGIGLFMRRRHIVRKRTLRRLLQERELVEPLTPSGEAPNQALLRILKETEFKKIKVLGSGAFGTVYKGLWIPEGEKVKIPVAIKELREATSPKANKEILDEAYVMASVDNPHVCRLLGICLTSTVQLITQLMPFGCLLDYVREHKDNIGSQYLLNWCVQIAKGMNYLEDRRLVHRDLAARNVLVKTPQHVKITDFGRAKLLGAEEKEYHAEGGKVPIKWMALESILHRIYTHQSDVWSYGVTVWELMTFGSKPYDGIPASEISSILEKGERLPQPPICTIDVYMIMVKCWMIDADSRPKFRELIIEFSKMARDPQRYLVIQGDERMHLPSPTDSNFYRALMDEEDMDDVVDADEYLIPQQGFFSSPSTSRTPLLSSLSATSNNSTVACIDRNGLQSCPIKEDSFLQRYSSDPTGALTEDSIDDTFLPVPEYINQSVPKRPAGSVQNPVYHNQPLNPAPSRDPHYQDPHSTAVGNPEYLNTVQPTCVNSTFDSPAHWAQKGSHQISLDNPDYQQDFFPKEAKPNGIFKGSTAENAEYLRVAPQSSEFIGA

DC50 (EGFR L858R-T790M) [nM]	DC50 (EGFR L858R-T790M-C797S) [nM]	DC50 (EGFR L858R) [nM]	Structure (SMILES)
–	< 50	–	O=C1CC[C@H](Nc2ccc(C3CCN(C(=O)CC4(O)CCN(c5ccc(-c6cc(F)c7cn(C(C(=O)Nc8nccs8)c8ncn9c8CCC9)nc7c6)cn5)CC4)CC3)c(F)c2)C(=O)N1 (stereo partly drawn) [Compound 150, 2-(6,7-dihydro-5H-pyrrolo[1,2-c]imidazol-1-yl)-2-[6-[6-[4-[2-[4-[4-[[(3S)-2,6-dioxo-3-piperidyl]amino]-2-fluoro-phenyl]-1-piperidyl]-2-oxo-ethyl]-4-hydroxy-1-piperidyl]-3-pyridyl]-4-fluoro-indazol-2-yl]-N-thiazol-2-yl-acetamide]
–	< 50	–	O=C1CC[C@H](Nc2ccc(C3CCN(C(=O)CC4(O)CCN(c5ccc(-c6ccc7cn(C(C(=O)Nc8nccs8)c8ncn9c8CCC9)nc7c6F)cn5)CC4)CC3)c(F)c2)C(=O)N1 (stereo partly drawn) [Compound 151, 2-(6,7-dihydro-5H-pyrrolo[1,2-c]imidazol-1-yl)-2-[6-[6-[4-[2-[4-[4-[[(3S)-2,6-dioxo-3-piperidyl]amino]-2-fluoro-phenyl]-1-piperidyl]-2-oxo-ethyl]-4-hydroxy-1-piperidyl]-3-pyridyl]-7-fluoro-indazol-2-yl]-N-thiazol-2-yl-acetamide]
–	< 50	–	O=C1CC[C@H](Nc2ccc(C3CCN(C(=O)CC4(O)CCN(c5ccc(-c6ccc7cn(C(C(=O)Nc8nccs8)c8ncn9c8CCC9)nc7c6F)cc5)CC4)CC3)c(F)c2)C(=O)N1 (stereo partly drawn) [Compound 149, 2-(6,7-dihydro-5H-pyrrolo[1,2-c]imidazol-1-yl)-2-[6-[4-[4-[2-[4-[4-[[(3S)-2,6-dioxo-3-piperidyl]amino]-2-fluoro-phenyl]-1-piperidyl]-2-oxo-ethyl]-4-hydroxy-1-piperidyl]phenyl]-7-fluoro-indazol-2-yl]-N-thiazol-2-yl-acetamide]
< 50	< 50	–	Cn1nc(N2CCC(=O)NC2=O)c2ccc(C3CCN(CC(=O)N4CC5(C4)CN(c4ccc(-c6cc(F)c7c(c6)C(=O)N(C(C(=O)Nc6nccs6)c6ncn8c6CCC8)C7)cc4)C5)C4(CC4)C3)cc21 (stereo not shown) [Compound 154, 2-(6,7-dihydro-5H-pyrrolo[1,2-c]imidazol-1-yl)-2-[6-[4-[2-[2-[7-[3-(2,4-dioxohexahydropyrimidin-1-yl)-1-methyl-indazol-6-yl]-4-azaspiro[2.5]octan-4-yl]acetyl]-2,6-diazaspiro[3.3]heptan-6-yl]phenyl]-4-fluoro-1-oxo-isoindolin-2-yl]-N-thiazol-2-yl-acetamide]

Second part, the compound before the results:

Structure (SMILES)	DC50 (EGFR L858R-T790M) [nM]	DC50 (EGFR L858R-T790M-C797S) [nM]	DC50 (EGFR L858R) [nM]
O=C1CCC(Nc2ccc(N3CCC(O)(CC(=O)N4CCC(NC(=O)c5ccc(C#Cc6cc(F)c7c(c6)C(=O)N(C(C(=O)Nc6nccs6)c6ncn8c6CCC8)C7)cn5)CC4)CC3)c(F)c2)C(=O)N1 (stereo not shown) [Compound 96, 5-((2-(1-(6,7-dihydro-5H-pyrrolo[1,2-c]imidazol-1-yl)-2-oxo-2-(thiazol-2-ylamino)ethyl)-7-fluoro-3-oxoisoindolin-5-yl)ethynyl)-N-(1-(2-(1-(4-((2,6-dioxopiperidin-3-yl)amino)-2-fluorophenyl)-4-hydroxypiperidin-4-yl)acetyl)piperidin-4-yl)picolinamide]	< 50	< 50	–
O=C1CCC(Nc2ccc(N3CCC(O)(CC(=O)N4CC5(C4)CN(c4ccc(-c6cc(F)c7c(c6)C(=O)N(C(C(=O)Nc6ccccn6)c6ncn8c6CCC8)C7)cc4)C5)CC3)c(F)c2)C(=O)N1 (stereo not shown) [Compound 99, 2-(6,7-dihydro-5H-pyrrolo[1,2-c]imidazol-1-yl)-2-[6-[4-[2-[2-[1-[4-[(2,6-dioxo-3-piperidyl)amino]-2-fluoro-phenyl]-4-hydroxy-4-piperidyl]acetyl]-2,6-diazaspiro[3.3]heptan-6-yl]phenyl]-4-fluoro-1-oxo-isoindolin-2-yl]-N-(2-pyridyl)acetamide]	< 50	< 50	–
Cn1nc(N2CCC(=O)NC2=O)c2ccc(C3CCN(CC(=O)N4CC5(C4)CN(c4ccc(-c6ccc7cn(C(C(=O)Nc8nccs8)c8ncn9c8CCC9)nc7c6F)cn4)C5)CC3(F)F)cc21 (stereo not shown) [Compound 70, 2-(6,7-dihydro-5H-pyrrolo[1,2-c]imidazol-1-yl)-2-[6-[6-[2-[2-[4-[3-(2,4-dioxohexahydropyrimidin-1-yl)-1-methyl-indazol-6-yl]-3,3-difluoro-1-piperidyl]acetyl]-2,6-diazaspiro[3.3]heptan-6-yl]-3-pyridyl]-7-fluoro-indazol-2-yl]-N-thiazol-2-yl-acetamide]	< 50	< 50	–
Cn1nc(N2CCC(=O)NC2=O)c2ccc(N3CCN(CC(=O)N4CCN(c5ccc(-c6cc(F)c7c(c6)C(=O)N(C(C(=O)Nc6nccs6)c6ncn8c6CCC8)C7)cc5)CC4)CC3)cc21 (stereo not shown) [Compound 92, 2-(6,7-dihydro-5H-pyrrolo[1,2-c]imidazol-1-yl)-2-(6-(4-(4-(2-(4-(3-(2,4-dioxotetrahydropyrimidin-1(2H)-yl)-1-methyl-1H-indazol-6-yl)piperazin-1-yl)acetyl)piperazin-1-yl)phenyl)-4-fluoro-1-oxoisoindolin-2-yl)-N-(thiazol-2-yl)acetamide]	< 50	< 50	–
C[C@@H]1CC(O)(CC(=O)N2CC3(C2)CN(c2ccc(-c4cc(F)c5cn(C(C(=O)Nc6nccs6)c6ncn7c6CCC7)nc5c4)cc2)C3)C[C@H](C)N1c1ccc(NC2CCC(=O)NC2=O)cc1F (stereo partly shown) [Compound 148, 2-(6,7-dihydro-5H-pyrrolo[1,2-c]imidazol-1-yl)-2-[6-[4-[2-[2-[(2s,6r)-1-[4-[(2,6-dioxo-3-piperidyl)amino]-2-fluoro-phenyl]-4-hydroxy-2,6-dimethyl-4-piperidyl]acetyl]-2,6-diazaspiro[3.3]heptan-6-yl]phenyl]-4-fluoro-indazol-2-yl]-N-thiazol-2-yl-acetamide]	–	< 50	–
Cn1nc(N2CCC(=O)NC2=O)c2ccc(C3CCN(CC(=O)N4CCCN(c5ccc(-c6cc(F)c7c(c6)C(=O)N(C(C(=O)Nc6nccs6)c6ncn8c6CCC8)C7)cc5)CC4)CC3(F)F)cc21 (stereo not shown) [Compound 91, 2-(6,7-dihydro-5H-pyrrolo[1,2-c]imidazol-1-yl)-2-(6-(4-(4-(2-(4-(3-(2,4-dioxotetrahydropyrimidin-1(2H)-yl)-1-methyl-1H-indazol-6-yl)-3,3-difluoropiperidin-1-yl)acetyl)-1,4-diazepan-1-yl)phenyl)-4-fluoro-1-oxoisoindolin-2-yl)-N-(thiazol-2-yl)acetamide]	< 50	50 to 150	–
O=C1CCC(Nc2cc(F)c(N3CCC(O)(CC(=O)N4CC5(C4)CN(c4ccc(-c6cc(F)c7c(c6)C(=O)N(C(C(=O)Nc6nccs6)c6ncn8c6CCC8)C7)cc4)C5)CC3)c(F)c2)C(=O)N1 (stereo not shown) [Compound 103, 2-(6,7-dihydro-5H-pyrrolo[1,2-c]imidazol-1-yl)-2-[6-[4-[2-[2-[1-[4-[(2,6-dioxo-3-piperidyl)-amino]-2,6-difluoro-phenyl]-4-hydroxy-4-piperidyl]acetyl]-2,6-diazaspiro[3.3]hept-an-6-yl]-phenyl]-4-fluoro-1-oxo-isoindolin-2-yl]-N-thiazol-2-yl-acetamide]	< 50	–	< 50
O=C1CCN(c2ccc(N3CCC(O)(CC(=O)N4CC5(C4)CN(c4ccc(-c6cc(F)c7cn(C(C(=O)Nc8nccs8)c8ncn9c8CCC9)nc7c6)cc4)C5)CC3)c(F)c2)C(=O)N1 (stereo not shown) [Compound 147]	–	< 50	–
